Source: paper PMC9241669, “Allantodapsone is a Pan-Inhibitor of Staphylococcus aureus Adhesion to Fibrinogen, Loricrin, and Cytokeratin 10” (Microbiology Spectrum, 2022)

Assays:
recombinant ClfB N2N3 = recombinant ClfB N2N3 (Staphylococcus aureus, UniProt O86476); assay: ELISA of recombinant ClfB N2N3 binding to immobilized GST-L2v loricrin; parameters: species or system S. aureus; details: allantodapsone 100 μM; ClfB 5 μM; P < 0.0001
Experimental: FIG 4 Allantodapsone inhibits S. aureus adhesion to loricrin and cytokeratin 10. Dose-response curve for adhesion of S. aureus Newman to GST-L2v loricrin (A) and CK10 (C). (B) Inhibition of recombinant ClfB N2N3 binding to immobilized GST-L2v loricrin by allantodapsone. (D) Inhibition of S. aureus Newman adhesion to GST-L2v loricrin by allantodapsone derivatives. Purified GST-L2v or CK10 were used to coat plates at 4°C overnight. Wells were washed with PBS and blocked with 1% BSA. Washed bacteria (OD600 of 1) were mixed with allantodapsone or vehicle control before being added to the wells and incubated for 2 h at 37°C. Adherent cells were washed, fixed, and stained with crystal violet, and wells further washed. The dye was dissolved in acetic acid, and the absorbance measured at 570 nm. GST-L2v was used at 20 μM in A and D. CK10 was used at 10 nM. […] Bound ClfB was detected using peroxidase-conjugated anti-His monoclonal antibody in an ELISA. […]
Recombinant GST-tagged L2v loricrin (120 nM) was coated onto a microtiter plate (Nunc Maxisorb) in sodium carbonate buffer (15 mM Na2CO3, 35 mM NaHCO3, pH 9.6) for 16 h at 4°C. […] Bound ClfB was detected with peroxidase-conjugated anti-His monoclonal antibody in 1% (wt/vol) skimmed milk proteins in PBS. […] The reaction was stopped by the addition of 2 M H2S0_4 (50 μL/well), and the A450 was measured in a plate reader (Labsystems).

[1] = test system: platelet aggregation induced by S. aureus Newman; assay: Platelet aggregation induced by S. aureus Newman in platelet rich plasma; format: cell-based, human; details: 100 μM allantodapsone, 5 minutes prior to aggregation
Experimental: V. Microbiology: Materials and Methods
The MTT toxicity assay (1) (Vybrant MTT Cell Proliferation Assay, Molecular Probes, Or, USA) was used to measure cytotoxicity. Myeloid lineage, U-937 cells (2) were grown in RPMI-1640 (Gibco) culture medium supplemented with 10% foetal calf serum, 1% L-glutamine and 1% Penicillin/Streptomycin (Gibco). U-937 cells were centrifuged and cells diluted with fresh medium containing 1.2 mM MTT solution to a concentration of (5-6 x 10^6 per mL) and incubated at 37 °C for 2 h. Cells were centrifuged and the pellet dissolved in DMSO. The absorbance was read at 490 nm using the Wallac Victor2, (Shelton, Connecticut, USA).
Platelet aggregation was performed in platelet rich plasma according to O’Brien et al.
S. aureus Newman (stationary phase) was washed and diluted to an OD600 of 2.5.
This was mixed with 10 mg/mL of fibrinogen in 1:1 ratio resulting in a final concentration 5 mg/mL fibrinogen. Fibrinogen -bacteria aggregates clump and settle at the bottom of the tube resulting in a clear solution. These were compared to the turbid bacterial suspension in buffer by visual inspection. […]
of S. aureus Newman was used as an agonist to stimulate platelet aggregation. […] Data was analysed by repeated measures ANOVA followed by a multiple comparison Dunnett’s test. […]

Sequence of recombinant ClfB N2N3 (O86476 201-542): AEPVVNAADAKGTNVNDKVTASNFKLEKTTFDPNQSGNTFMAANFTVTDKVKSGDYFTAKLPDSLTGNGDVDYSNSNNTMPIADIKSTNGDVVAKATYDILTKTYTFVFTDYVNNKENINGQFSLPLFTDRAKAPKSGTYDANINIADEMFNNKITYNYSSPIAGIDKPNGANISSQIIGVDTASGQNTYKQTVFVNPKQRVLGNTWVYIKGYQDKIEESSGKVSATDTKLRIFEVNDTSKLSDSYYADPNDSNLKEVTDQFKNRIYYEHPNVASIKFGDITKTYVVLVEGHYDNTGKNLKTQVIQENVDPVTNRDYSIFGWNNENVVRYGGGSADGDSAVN

Nc1ccc(S(=O)(=O)c2ccc(NCN3C(=O)NC(=O)C(=O)C3=O)cc2)cc1 [Allantodapsone]
inhibition of recombinant ClfB binding to L2v loricrin (recombinant ClfB N2N3): inhibited
inhibition of S. aureus Newman induced platelet aggregation [1]: did not inhibit
